Test results: BigSolDB 2.1

CNC(=O)c1cc(Oc2ccc(N)cc2)ccn1
solubility (mole fraction)
Conditions | in THF | in acetone | in acetonitrile | in acetylacetone | in dichloromethane | in ethyl acetate | in methanol | in n-butanol | in n-propanol | in water
278.15 K | 0.0919 | 0.046 | 0.0286 | 0.0202 | 0.00511 | 0.0568 | 0.00985 | 0.0041 | 0.00552 | 0.000327
283.15 K | 0.0992 | 0.0481 | 0.033 | 0.0214 | 0.00821 | 0.0667 | 0.0126 | 0.0047 | 0.00674 | 0.00035
288.15 K | 0.108 | 0.0514 | 0.0401 | 0.0232 | 0.0139 | 0.0793 | 0.0162 | 0.00592 | 0.00879 | 0.000387
293.15 K | 0.119 | 0.0558 | 0.0497 | 0.0256 | 0.0211 | 0.0939 | 0.0212 | 0.00796 | 0.0114 | 0.000438
298.15 K | 0.13 | 0.0616 | 0.0601 | 0.0285 | 0.0297 | 0.112 | 0.0285 | 0.0101 | 0.0145 | 0.000506
303.15 K | 0.144 | 0.0683 | 0.0737 | 0.0321 | 0.0413 | 0.131 | 0.0378 | 0.0135 | 0.0185 | 0.000598
308.15 K | 0.159 | 0.0766 | 0.091 | 0.0367 | 0.0549 | 0.154 | 0.0497 | 0.0174 | 0.0241 | 0.000715
313.15 K | 0.174 | 0.086 | 0.11 | 0.042 | 0.0727 | 0.181 | 0.0642 | 0.0225 | 0.0312 | 0.000857
318.15 K | 0.194 | 0.0975 | 0.134 | 0.048 | 0.0947 | 0.209 | 0.0825 | 0.0287 | 0.0398 | 0.00106
323.15 K | 0.214 | 0.112 | 0.161 | 0.0558 | 0.123 | 0.242 | 0.106 | 0.0369 | 0.0507 | 0.00133
